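Values below derive from 48-hour exposures of cells grown in 96-well plates, with endpoints linearly interpolated between the two concentrations bracketing the appropriate inhibition level. Here, GI50 denotes the concentration required for 50% inhibition of growth.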 Calls of active or inactive are those of the source. No stated cut-off is given here; in the data, active = GI50 up to about 1.1 µM and inactive = higher.
How the values were obtained:
Test in all cases: growth of human tumour cells (NCI), 48 h
K562 = tested on: K562
OVCAR-5 = tested on: OVCAR-5
OVCAR-3 = tested on: OVCAR-3
Malme-3M = tested on: Malme-3M
786-0 = tested on: 786-0
ACHN = tested on: ACHN
KM-20L2 = tested on: KM-20L2
LXFL 529 = tested on: LXFL 529
SF-295 = tested on: SF-295
SK-MEL-5 = tested on: SK-MEL-5
SNB-78 = tested on: SNB-78
OVCAR-8 = tested on: OVCAR-8
NCI-H522 = tested on: NCI-H522
XF498 = tested on: XF498
HCT-116 = tested on: HCT-116
HL-60 = tested on: HL-60
LOX IMVI = tested on: LOX IMVI
UO-31 = tested on: UO-31
DMS-273 = tested on: DMS-273
SF-268 = tested on: SF-268
IGROV-1 = tested on: IGROV-1
M14 = tested on: M14
KM12 = tested on: KM12
HCT-15 = tested on: HCT-15
DMS-114 = tested on: DMS-114
SK-MEL-28 = tested on: SK-MEL-28
TK-10 = tested on: TK-10
RXF 393 = tested on: RXF 393
SR = tested on: SR
SNB-75 = tested on: SNB-75
RPMI-8226 = tested on: RPMI-8226
CCRF-CEM = tested on: CCRF-CEM
COLO 205 = tested on: COLO 205
SN12C = tested on: SN12C
UACC-62 = tested on: UACC-62
NCI-H226 = tested on: NCI-H226
MOLT-4 = tested on: MOLT-4
HOP-92 = tested on: HOP-92
EKVX = tested on: EKVX
A549 = tested on: A549
SNB-19 = tested on: SNB-19
HOP-62 = tested on: HOP-62
SK-OV-3 = tested on: SK-OV-3
HT-29 = tested on: HT-29
SK-MEL-2 = tested on: SK-MEL-2
UACC-257 = tested on: UACC-257
RXF 631 = tested on: RXF 631
CAKI-1 = tested on: CAKI-1
U-251 = tested on: U-251
M19-MEL = tested on: M19-MEL
NCI-H23 = tested on: NCI-H23
SW-620 = tested on: SW-620
NCI-H460 = tested on: NCI-H460
SF-539 = tested on: SF-539
HCC 2998 = tested on: HCC 2998
A498 = tested on: A498
HOP-18 = tested on: HOP-18
OVCAR-4 = tested on: OVCAR-4
DLD-1 = tested on: DLD-1

CC(=O)OC1OC2C(NC(=O)OC(C)(C)C)C1CC2(OCc1ccccc1)OCc1ccccc1 (stereo not given) was tested, and the GI50 (K562) was 17 µM (inactive), the GI50 (OVCAR-5) was 28.3 µM (inactive) and the GI50 (OVCAR-3) was 16.5 µM (inactive). For the same molecule, the GI50 (Malme-3M) was 14.4 µM (inactive), the GI50 (786-0) was 23.3 µM (inactive) and the GI50 (ACHN) was 22.4 µM (inactive). The GI50 (KM-20L2) was 19.9 µM (inactive), the GI50 (LXFL 529) was 20 µM (inactive) and the GI50 (SF-295) was 35.2 µM (inactive). The GI50 (SK-MEL-5) was 17.6 µM (inactive), the GI50 (SNB-78) was 37.6 µM (inactive) and the GI50 (OVCAR-8) was 53.8 µM (inactive). For the same molecule, the GI50 (NCI-H522) was 15.1 µM (inactive), the GI50 (XF498) was 18.9 µM (inactive) and the GI50 (HCT-116) was 16.7 µM (inactive). The GI50 (HL-60) was 12.8 µM (inactive), the GI50 (LOX IMVI) was > 10 µM (inactive) and the GI50 (UO-31) was 13.1 µM (inactive). For the same molecule, the GI50 (DMS-273) was 18.6 µM (inactive), the GI50 (SF-268) was 35.7 µM (inactive) and the GI50 (IGROV-1) was 27 µM (inactive). The GI50 (M14) was 20.5 µM (inactive), the GI50 (KM12) was 27.8 µM (inactive) and the GI50 (HCT-15) was 32.3 µM. The GI50 (DMS-114) was 18.7 µM (inactive), the GI50 (SK-MEL-28) was 20.9 µM (inactive) and the GI50 (TK-10) was 17 µM (inactive). The GI50 (RXF 393) was 14.2 µM (inactive), the GI50 (SR) was 17.8 µM (inactive) and the GI50 (SNB-75) was 36.2 µM (inactive). For the same molecule, the GI50 (RPMI-8226) was 11.6 µM (inactive), the GI50 (CCRF-CEM) was 18.3 µM (inactive) and the GI50 (COLO 205) was 21.7 µM (inactive). The GI50 (SN12C) was 27.2 µM (inactive), the GI50 (UACC-62) was 19 µM (inactive) and the GI50 (NCI-H226) was 24.7 µM (inactive). The GI50 (MOLT-4) was 9.71 µM (inactive), the GI50 (HOP-92) was 12.5 µM (inactive) and the GI50 (EKVX) was 34.7 µM (inactive). For the same molecule, the GI50 (A549) was 36.5 µM (inactive), the GI50 (SNB-19) was 45.1 µM (inactive) and the GI50 (HOP-62) was 28.2 µM (inactive). For the same molecule, the GI50 (SK-OV-3) was 28.3 µM (inactive), the GI50 (HT-29) was 33.7 µM (inactive) and the GI50 (SK-MEL-2) was 19.8 µM (inactive). The GI50 (UACC-257) was 19.1 µM (inactive), the GI50 (RXF 631) was 33.4 µM (inactive) and the GI50 (CAKI-1) was 32.4 µM (inactive). The GI50 (U-251) was 14.4 µM (inactive), the GI50 (M19-MEL) was 25.8 µM (inactive) and the GI50 (NCI-H23) was 18.8 µM (inactive). For the same molecule, the GI50 (SW-620) was 32.8 µM (inactive), the GI50 (NCI-H460) was 34.8 µM (inactive) and the GI50 (SF-539) was 18.1 µM (inactive). The GI50 (HCC 2998) was 21.6 µM (inactive), the GI50 (A498) was 19.4 µM (inactive) and the GI50 (HOP-18) was 19.5 µM (inactive).

With O=CCCCC(Sc1ccccc1)Sc1ccccc1 the GI50 (K562) was 14.4 µM (inactive), the GI50 (OVCAR-3) was 26.2 µM (inactive) and the GI50 (786-0) was 19.1 µM (inactive). For the same molecule, the GI50 (ACHN) was 16.3 µM (inactive), the GI50 (KM-20L2) was 39.5 µM (inactive) and the GI50 (LXFL 529) was 13 µM (inactive). The GI50 (SF-295) was 18.1 µM (inactive), the GI50 (SK-MEL-5) was 15.8 µM (inactive) and the GI50 (SNB-78) was 15.3 µM (inactive). The GI50 (OVCAR-8) was 17.4 µM (inactive), the GI50 (NCI-H522) was > 100 µM (inactive) and the GI50 (OVCAR-4) was 21.7 µM (inactive). For the same molecule, the GI50 (XF498) was 19 µM (inactive), the GI50 (HCT-116) was 12.4 µM (inactive) and the GI50 (HL-60) was 6.1 µM (inactive). For the same molecule, the GI50 (LOX IMVI) was 13.7 µM (inactive), the GI50 (UO-31) was 14.7 µM (inactive) and the GI50 (DMS-273) was 17.3 µM (inactive). The GI50 (SF-268) was 18.4 µM (inactive), the GI50 (IGROV-1) was 19.9 µM (inactive) and the GI50 (M14) was 22.9 µM (inactive). The GI50 (KM12) was 33 µM (inactive), the GI50 (HCT-15) was 15.7 µM and the GI50 (DMS-114) was 23.9 µM (inactive). The GI50 (SK-MEL-28) was 15.8 µM (inactive), the GI50 (TK-10) was 32.4 µM (inactive) and the GI50 (RXF 393) was > 10 µM (inactive). The GI50 (SR) was 15.6 µM (inactive), the GI50 (SNB-75) was 18.2 µM (inactive) and the GI50 (RPMI-8226) was 16 µM (inactive). For the same molecule, the GI50 (CCRF-CEM) was 12 µM (inactive), the GI50 (COLO 205) was 23.5 µM (inactive) and the GI50 (SN12C) was 22 µM (inactive). The GI50 (UACC-62) was 7.67 µM (inactive), the GI50 (MOLT-4) was 12.5 µM (inactive) and the GI50 (EKVX) was 31.1 µM (inactive). The GI50 (A549) was 29.6 µM (inactive), the GI50 (SNB-19) was 45.4 µM (inactive) and the GI50 (DLD-1) was 15.3 µM (inactive). The GI50 (HOP-62) was > 100 µM (inactive), the GI50 (SK-OV-3) was 18.7 µM (inactive) and the GI50 (SK-MEL-2) was 20.2 µM (inactive). The GI50 (UACC-257) was 21.1 µM (inactive), the GI50 (RXF 631) was 20.6 µM (inactive) and the GI50 (CAKI-1) was 56.8 µM (inactive). For the same molecule, the GI50 (U-251) was 15.5 µM (inactive), the GI50 (M19-MEL) was 18.1 µM (inactive) and the GI50 (NCI-H23) was 11.5 µM (inactive). For the same molecule, the GI50 (SW-620) was 11.4 µM (inactive), the GI50 (NCI-H460) was > 10 µM (inactive) and the GI50 (HCC 2998) was 31 µM (inactive). The GI50 (A498) was 38.8 µM (inactive).

With COc1ccc(/C=C\c2cc(OC)c(OC)c(OC)c2)cc1 the GI50 (K562) was 0.000102 µM (active), the GI50 (OVCAR-5) was 43.5 µM (inactive) and the GI50 (OVCAR-3) was < 0.0001 µM (active). For the same molecule, the GI50 (Malme-3M) was 0.00184 µM (active), the GI50 (786-0) was 0.000395 µM (active) and the GI50 (ACHN) was 0.000653 µM (active). The GI50 (KM-20L2) was 0.000428 µM (active), the GI50 (LXFL 529) was 0.000507 µM (active) and the GI50 (SF-295) was 0.000185 µM (active). The GI50 (SK-MEL-5) was < 0.0001 µM (active), the GI50 (SNB-78) was 0.000116 µM (active) and the GI50 (OVCAR-8) was 0.000832 µM (active). For the same molecule, the GI50 (NCI-H522) was 0.000364 µM (active), the GI50 (XF498) was 0.000741 µM (active) and the GI50 (HCT-116) was 0.000279 µM (active). The GI50 (HL-60) was 0.000244 µM (active), the GI50 (LOX IMVI) was 0.000632 µM (active) and the GI50 (UO-31) was < 0.01 µM (active). For the same molecule, the GI50 (DMS-273) was 0.000273 µM (active), the GI50 (SF-268) was 0.000766 µM (active) and the GI50 (IGROV-1) was 0.0387 µM (active). For the same molecule, the GI50 (M14) was 0.00024 µM (active), the GI50 (KM12) was 0.000124 µM (active) and the GI50 (HCT-15) was 0.000448 µM. The GI50 (DMS-114) was 0.0013 µM (active), the GI50 (SK-MEL-28) was < 0.01 µM (active) and the GI50 (SR) was < 0.01 µM (active). For the same molecule, the GI50 (SNB-75) was 0.000237 µM (active), the GI50 (RPMI-8226) was 0.00049 µM (active) and the GI50 (CCRF-CEM) was 0.000269 µM (active). For the same molecule, the GI50 (COLO 205) was 0.0291 µM (active), the GI50 (SN12C) was 0.000843 µM (active) and the GI50 (UACC-62) was < 0.0001 µM (active). For the same molecule, the GI50 (NCI-H226) was 0.000499 µM (active), the GI50 (MOLT-4) was 0.000506 µM (active) and the GI50 (HOP-92) was 0.0127 µM (active). For the same molecule, the GI50 (EKVX) was 0.00264 µM (active), the GI50 (A549) was 0.00051 µM (active) and the GI50 (SNB-19) was 0.0013 µM (active). The GI50 (DLD-1) was 0.0004 µM (active), the GI50 (HOP-62) was 0.1 µM (active) and the GI50 (SK-OV-3) was 0.000726 µM (active). The GI50 (HT-29) was < 0.01 µM (active), the GI50 (SK-MEL-2) was < 0.01 µM (active) and the GI50 (UACC-257) was < 0.01 µM (active). For the same molecule, the GI50 (RXF 631) was < 0.01 µM (active), the GI50 (CAKI-1) was < 0.01 µM (active) and the GI50 (U-251) was 0.000284 µM (active). The GI50 (M19-MEL) was < 0.01 µM (active), the GI50 (NCI-H23) was 0.000357 µM (active) and the GI50 (SW-620) was 0.000237 µM (active). The GI50 (NCI-H460) was < 0.01 µM (active), the GI50 (SF-539) was 0.000389 µM (active) and the GI50 (HCC 2998) was 0.0385 µM (active). For the same molecule, the GI50 (A498) was < 0.01 µM (active) and the GI50 (HOP-18) was 0.973 µM (active).
